Laboratory results from PubChem BioAssay (NCI).
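Exposure lasted 48 hours, with cells grown in 96-well plates and compounds tested at five concentrations. TGI: total growth inhibition.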

Tests used:
Experiment in all cases: DTP human tumour cell line panel, 48 h
[1] = tested on: HS 578T breast
[2] = tested on: HT29 colon
[3] = tested on: SR leukemia
[4] = tested on: SF-539 CNS
[5] = tested on: CAKI-1 renal
[6] = tested on: MALME-3M melanoma
[7] = tested on: DU-145 prostate
[8] = tested on: KM12 colon
[9] = tested on: SF-295 CNS
[10] = tested on: HCT-116 colon
[11] = tested on: SW-620 colon
[12] = tested on: UO-31 renal
[13] = tested on: SK-MEL-2 melanoma
[14] = tested on: COLO 205 colon
[15] = tested on: RXF 393 renal
[16] = tested on: MOLT-4 leukemia
[17] = tested on: LOX IMVI melanoma
[18] = tested on: K-562 leukemia
[19] = tested on: ACHN renal
[20] = tested on: UACC-257 melanoma
[21] = tested on: OVCAR-4 ovarian
[22] = tested on: NCI/ADR-RES ovarian
[23] = tested on: OVCAR-3 ovarian
[24] = tested on: RPMI-8226 leukemia
[25] = tested on: IGROV1 ovarian
[26] = tested on: TK-10 renal
[27] = tested on: MCF7 breast
[28] = tested on: HL-60(TB) leukemia
[29] = tested on: NCI-H522 lung
[30] = tested on: HOP-92 NSCLC
[31] = tested on: UACC-62 melanoma
[32] = tested on: SK-OV-3 ovarian
[33] = tested on: 786-0 renal
[34] = tested on: CCRF-CEM leukemia
[35] = tested on: HCT-15 colon
[36] = tested on: SK-MEL-5 melanoma
[37] = tested on: SK-MEL-28 melanoma
[38] = tested on: HOP-62 NSCLC
[39] = tested on: M14 melanoma
[40] = tested on: HCC-2998 colon
[41] = tested on: T-47D breast
[42] = tested on: NCI-H23 lung
[43] = tested on: OVCAR-8 ovarian
[44] = tested on: EKVX NSCLC
[45] = tested on: BT-549 breast
[46] = tested on: NCI-H460 lung
[47] = tested on: SF-268 CNS
[48] = tested on: MDA-N
[49] = tested on: MDA-MB-231 breast
[50] = tested on: OVCAR-5 ovarian
[51] = tested on: NCI-H226 lung
[52] = tested on: A549 NSCLC
[53] = tested on: PC-3 prostate
[54] = tested on: SN12C renal
[55] = tested on: MDA-MB-435
[56] = tested on: U251 CNS
[57] = tested on: SNB-19 CNS
[58] = tested on: A498 renal

`O=C(CCc1ccc(O)c(O)c1)OCCc1ccccc1` was tested. Which TGI [1] did it give?
Its TGI is greater than 100 µM.

And the TGI [2]?
The TGI was greater than 100 µM.

What about the TGI [3] of the same molecule?
The TGI was greater than 78.2 µM.

And the TGI [4]?
The TGI was 54.5 µM.

And the TGI [5]?
Its TGI is greater than 100 µM.

What about the TGI [6] of the same molecule?
The TGI was greater than 100 µM.

And the TGI [7]?
Its TGI is greater than 100 µM.

What about the TGI [8] of the same molecule?
The TGI was greater than 100 µM.

And the TGI [9]?
Its TGI is greater than 100 µM.

And the TGI [10]?
The TGI was greater than 100 µM.

And the TGI [11]?
Its TGI is greater than 62.2 µM.

What about the TGI [12] of the same molecule?
Its TGI is greater than 100 µM.

And the TGI [13]?
Its TGI is greater than 100 µM.

And the TGI [14]?
The TGI was greater than 100 µM.

And the TGI [15]?
Its TGI is greater than 100 µM.

And the TGI [16]?
Its TGI is greater than 83.4 µM.

What about the TGI [17] of the same molecule?
The TGI was 54.8 µM.

And the TGI [18]?
The TGI was greater than 57.5 µM.

What about the TGI [19] of the same molecule?
The TGI was greater than 100 µM.

And the TGI [20]?
The TGI was greater than 100 µM.

What about the TGI [21] of the same molecule?
The TGI was greater than 65.6 µM.

And the TGI [22]?
The TGI was greater than 100 µM.

And the TGI [23]?
The TGI was greater than 100 µM.

And the TGI [24]?
Its TGI is greater than 86.6 µM.

And the TGI [25]?
Its TGI is greater than 100 µM.

And the TGI [26]?
The TGI was greater than 100 µM.

What about the TGI [27] of the same molecule?
The TGI was greater than 100 µM.

What about the TGI [28] of the same molecule?
The TGI was 17.3 µM.

And the TGI [29]?
Its TGI is 17.8 µM.

What about the TGI [30] of the same molecule?
Its TGI is greater than 100 µM.

What about the TGI [31] of the same molecule?
Its TGI is greater than 100 µM.

What about the TGI [32] of the same molecule?
Its TGI is greater than 100 µM.

What about the TGI [33] of the same molecule?
Its TGI is greater than 100 µM.

And the TGI [34]?
The TGI was 76.3 µM.

And the TGI [35]?
The TGI was greater than 100 µM.

What about the TGI [36] of the same molecule?
The TGI was greater than 100 µM.

What about the TGI [37] of the same molecule?
Its TGI is greater than 100 µM.

What about the TGI [38] of the same molecule?
Its TGI is greater than 31.6 µM.

And the TGI [39]?
The TGI was greater than 100 µM.

What about the TGI [40] of the same molecule?
The TGI was greater than 100 µM.

And the TGI [41]?
Its TGI is greater than 100 µM.

What about the TGI [42] of the same molecule?
The TGI was greater than 100 µM.

And the TGI [43]?
Its TGI is greater than 100 µM.

What about the TGI [44] of the same molecule?
The TGI was greater than 100 µM.

And the TGI [45]?
Its TGI is greater than 100 µM.

What about the TGI [46] of the same molecule?
Its TGI is greater than 100 µM.

What about the TGI [47] of the same molecule?
The TGI was greater than 100 µM.

What about the TGI [48] of the same molecule?
Its TGI is 30.4 µM.

And the TGI [49]?
The TGI was greater than 100 µM.

What about the TGI [50] of the same molecule?
The TGI was greater than 100 µM.

And the TGI [51]?
The TGI was greater than 100 µM.

And the TGI [52]?
Its TGI is greater than 100 µM.

What about the TGI [53] of the same molecule?
The TGI was greater than 100 µM.

And the TGI [54]?
The TGI was greater than 100 µM.

And the TGI [55]?
Its TGI is 40.6 µM.

What about the TGI [56] of the same molecule?
Its TGI is greater than 100 µM.

What about the TGI [57] of the same molecule?
Its TGI is greater than 100 µM.

And the TGI [58]?
Its TGI is greater than 100 µM.
